Results from the kinase profiling compilation of Christmann-Franck et al. (2016).
One block for each compound: values may come before it.

Legend:
ALK (human) = ALK (human) (UniProt Q9UM73); experiment: KINOMEscan competition binding; conditions: compound 10.0 µM
CAMK1D (human) = CAMK1D (human) (UniProt Q8IU85); experiment: KINOMEscan competition binding; conditions: compound 10.0 µM
CAMK2A (human) = CAMK2A (human) (UniProt Q9UQM7); experiment: KINOMEscan competition binding; conditions: compound 10.0 µM
CLK1 (human) = CLK1 (human) (UniProt P49759); experiment: KINOMEscan competition binding; conditions: compound 10.0 µM
CLK2 (human) = CLK2 (human) (UniProt P49760); experiment: KINOMEscan competition binding; conditions: compound 10.0 µM
DAPK1 (human) = DAPK1 (human) (UniProt P53355); experiment: KINOMEscan competition binding; conditions: compound 10.0 µM
DAPK2 (human) = DAPK2 (human) (UniProt Q9UIK4); experiment: KINOMEscan competition binding; conditions: compound 10.0 µM
DAPK3 (human) = DAPK3 (human) (UniProt O43293); experiment: KINOMEscan competition binding; conditions: compound 10.0 µM
DCLK1 (human) = DCLK1 (human) (UniProt O15075); experiment: KINOMEscan competition binding; conditions: compound 10.0 µM
DCLK2 (human) = DCLK2 (human) (UniProt Q8N568); experiment: KINOMEscan competition binding; conditions: compound 10.0 µM
FER (human) = FER (human) (UniProt P16591); experiment: KINOMEscan competition binding; conditions: compound 10.0 µM
GAK (human) = GAK (human) (UniProt O14976); experiment: KINOMEscan competition binding; conditions: compound 10.0 µM
IGF1R (human) = IGF1R (human) (UniProt P08069); experiment: KINOMEscan competition binding; conditions: compound 10.0 µM
INSR (human) = INSR (human) (UniProt P06213); experiment: KINOMEscan competition binding; conditions: compound 10.0 µM
INSRR (human) = INSRR (human) (UniProt P14616); experiment: KINOMEscan competition binding; conditions: compound 10.0 µM
MYLK (human) = MYLK (human) (UniProt Q15746); experiment: KINOMEscan competition binding; conditions: compound 10.0 µM
PLK3 (human) = PLK3 (human) (UniProt Q9H4B4); experiment: KINOMEscan competition binding; conditions: compound 10.0 µM
PLK4 (human) = PLK4 (human) (UniProt O00444); experiment: KINOMEscan competition binding; conditions: compound 10.0 µM
PRKD1 (human) = PRKD1 (human) (UniProt Q15139); experiment: KINOMEscan competition binding; conditions: compound 10.0 µM
PRKD3 (human) = PRKD3 (human) (UniProt O94806); experiment: KINOMEscan competition binding; conditions: compound 10.0 µM
PTK2 (human) = PTK2 (human) (UniProt Q05397); experiment: KINOMEscan competition binding; conditions: compound 10.0 µM
PTK2B (human) = PTK2B (human) (UniProt Q14289); experiment: KINOMEscan competition binding; conditions: compound 10.0 µM
RPS6KA1 KD2 (human) = RPS6KA1 KD2 (human) (UniProt Q15418); experiment: KINOMEscan competition binding; conditions: compound 10.0 µM
RPS6KA2 KD2 (human) = RPS6KA2 KD2 (human) (UniProt Q15349); experiment: KINOMEscan competition binding; conditions: compound 10.0 µM
RPS6KA6 KD2 (human) = RPS6KA6 KD2 (human) (UniProt Q9UK32); experiment: KINOMEscan competition binding; conditions: compound 10.0 µM
SLK (human) = SLK (human) (UniProt Q9H2G2); experiment: KINOMEscan competition binding; conditions: compound 10.0 µM
STK33 (human) = STK33 (human) (UniProt Q9BYT3); experiment: KINOMEscan competition binding; conditions: compound 10.0 µM
TNK1 (human) = TNK1 (human) (UniProt Q13470); experiment: KINOMEscan competition binding; conditions: compound 10.0 µM
TTK (human) [1] = biological target: TTK (human) (UniProt P33981); experiment: KINOMEscan competition binding; conditions: for kinase still bound, per cent of control: compound 10.0 µM
TTK (human) [2] = biological target: TTK (human) (UniProt P33981); experiment: SelectScreen, TR FRET
CDK16 (human) = CDK16 (human) (UniProt Q00536); experiment: KINOMEscan competition binding; conditions: compound 10.0 µM
CDK7 (human) = CDK7 (human) (UniProt P50613); experiment: KINOMEscan competition binding; conditions: compound 10.0 µM
CSK (human) = CSK (human) (UniProt P41240); experiment: KINOMEscan competition binding; conditions: compound 10.0 µM
HIPK1 (human) = HIPK1 (human) (UniProt Q86Z02); experiment: KINOMEscan competition binding; conditions: compound 10.0 µM
MAP2K3 (human) = MAP2K3 (human) (UniProt P46734); experiment: KINOMEscan competition binding; conditions: compound 10.0 µM
MAPK10 (human) = MAPK10 (human) (UniProt P53779); experiment: KINOMEscan competition binding; conditions: compound 10.0 µM
MAPK12 (human) = MAPK12 (human) (UniProt P53778); experiment: KINOMEscan competition binding; conditions: compound 10.0 µM
MAPK14 (human) = MAPK14 (human) (UniProt Q16539); experiment: KINOMEscan competition binding; conditions: compound 10.0 µM
MAPK15 (human) = MAPK15 (human) (UniProt Q8TD08); experiment: KINOMEscan competition binding; conditions: compound 10.0 µM
MAPK8 (human) = MAPK8 (human) (UniProt P45983); experiment: KINOMEscan competition binding; conditions: compound 10.0 µM
MAPK9 (human) = MAPK9 (human) (UniProt P45984); experiment: KINOMEscan competition binding; conditions: compound 10.0 µM
MYLK4 (human) = MYLK4 (human) (UniProt Q86YV6); experiment: KINOMEscan competition binding; conditions: compound 10.0 µM
PIM1 (human) [3] = biological target: PIM1 (human) (UniProt P11309); experiment: KINOMEscan competition binding; conditions: compound 10.0 µM
PIM2 (human) [4] = biological target: PIM2 (human) (UniProt Q9P1W9); experiment: KINOMEscan competition binding; conditions: compound 10.0 µM
PIM3 (human) = PIM3 (human) (UniProt Q86V86); experiment: KINOMEscan competition binding; conditions: compound 10.0 µM
TAOK1 (human) = TAOK1 (human) (UniProt Q7L7X3); experiment: KINOMEscan competition binding; conditions: compound 10.0 µM
TLK2 (human) = TLK2 (human) (UniProt Q86UE8); experiment: KINOMEscan competition binding; conditions: compound 10.0 µM
PIM1 (human) [5] = biological target: PIM1 (human) (UniProt P11309); experiment: SelectScreen, TR FRET
PIM2 (human) [6] = biological target: PIM2 (human) (UniProt Q9P1W9); experiment: SelectScreen, TR FRET

Chain of TTK (human) (P33981 whole entry, looked up): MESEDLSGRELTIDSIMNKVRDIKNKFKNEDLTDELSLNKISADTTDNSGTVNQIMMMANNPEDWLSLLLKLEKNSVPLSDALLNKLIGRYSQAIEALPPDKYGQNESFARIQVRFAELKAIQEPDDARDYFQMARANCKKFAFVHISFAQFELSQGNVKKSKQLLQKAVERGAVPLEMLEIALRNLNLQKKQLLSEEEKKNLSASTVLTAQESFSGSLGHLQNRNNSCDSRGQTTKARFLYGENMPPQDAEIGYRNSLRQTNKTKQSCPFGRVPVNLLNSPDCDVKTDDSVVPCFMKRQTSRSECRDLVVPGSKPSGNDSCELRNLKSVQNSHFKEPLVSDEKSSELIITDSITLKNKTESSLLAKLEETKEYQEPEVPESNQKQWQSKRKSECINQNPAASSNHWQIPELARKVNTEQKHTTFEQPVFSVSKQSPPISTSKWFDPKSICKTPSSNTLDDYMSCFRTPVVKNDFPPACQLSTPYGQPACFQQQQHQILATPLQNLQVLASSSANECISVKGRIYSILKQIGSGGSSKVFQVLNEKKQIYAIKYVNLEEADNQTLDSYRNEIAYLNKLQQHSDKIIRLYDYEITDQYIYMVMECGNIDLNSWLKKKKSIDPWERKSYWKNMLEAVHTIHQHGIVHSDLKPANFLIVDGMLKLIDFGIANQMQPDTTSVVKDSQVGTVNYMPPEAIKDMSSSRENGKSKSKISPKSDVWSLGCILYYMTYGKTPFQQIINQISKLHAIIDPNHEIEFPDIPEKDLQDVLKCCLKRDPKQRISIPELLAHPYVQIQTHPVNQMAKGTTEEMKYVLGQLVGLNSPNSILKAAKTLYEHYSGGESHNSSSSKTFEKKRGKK
Chain of CLK2 (human) (P49760 whole entry, looked up): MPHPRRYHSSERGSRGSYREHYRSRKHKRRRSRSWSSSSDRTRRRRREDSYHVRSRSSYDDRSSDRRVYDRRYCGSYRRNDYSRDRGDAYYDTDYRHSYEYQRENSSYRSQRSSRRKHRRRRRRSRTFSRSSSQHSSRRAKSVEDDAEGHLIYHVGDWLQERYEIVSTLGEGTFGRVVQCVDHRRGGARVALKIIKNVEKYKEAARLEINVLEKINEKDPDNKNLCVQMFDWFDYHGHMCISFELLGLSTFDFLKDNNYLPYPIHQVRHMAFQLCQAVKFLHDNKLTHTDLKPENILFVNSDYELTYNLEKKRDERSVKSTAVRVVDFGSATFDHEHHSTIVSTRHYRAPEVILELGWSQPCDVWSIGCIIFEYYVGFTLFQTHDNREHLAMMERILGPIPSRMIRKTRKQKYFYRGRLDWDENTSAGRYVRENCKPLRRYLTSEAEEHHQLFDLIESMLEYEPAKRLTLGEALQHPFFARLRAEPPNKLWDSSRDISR
Chain of PIM1 (human) (P11309 whole entry, looked up): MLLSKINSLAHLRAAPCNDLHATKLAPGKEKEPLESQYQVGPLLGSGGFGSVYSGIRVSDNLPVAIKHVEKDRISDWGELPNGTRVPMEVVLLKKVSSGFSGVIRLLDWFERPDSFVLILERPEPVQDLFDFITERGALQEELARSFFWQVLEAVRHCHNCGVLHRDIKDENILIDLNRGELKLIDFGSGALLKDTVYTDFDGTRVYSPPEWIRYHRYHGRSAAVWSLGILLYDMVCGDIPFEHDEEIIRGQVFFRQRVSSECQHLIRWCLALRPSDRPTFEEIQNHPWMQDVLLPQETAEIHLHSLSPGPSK
Chain of RPS6KA1 KD2 (human) (Q15418 whole entry, looked up): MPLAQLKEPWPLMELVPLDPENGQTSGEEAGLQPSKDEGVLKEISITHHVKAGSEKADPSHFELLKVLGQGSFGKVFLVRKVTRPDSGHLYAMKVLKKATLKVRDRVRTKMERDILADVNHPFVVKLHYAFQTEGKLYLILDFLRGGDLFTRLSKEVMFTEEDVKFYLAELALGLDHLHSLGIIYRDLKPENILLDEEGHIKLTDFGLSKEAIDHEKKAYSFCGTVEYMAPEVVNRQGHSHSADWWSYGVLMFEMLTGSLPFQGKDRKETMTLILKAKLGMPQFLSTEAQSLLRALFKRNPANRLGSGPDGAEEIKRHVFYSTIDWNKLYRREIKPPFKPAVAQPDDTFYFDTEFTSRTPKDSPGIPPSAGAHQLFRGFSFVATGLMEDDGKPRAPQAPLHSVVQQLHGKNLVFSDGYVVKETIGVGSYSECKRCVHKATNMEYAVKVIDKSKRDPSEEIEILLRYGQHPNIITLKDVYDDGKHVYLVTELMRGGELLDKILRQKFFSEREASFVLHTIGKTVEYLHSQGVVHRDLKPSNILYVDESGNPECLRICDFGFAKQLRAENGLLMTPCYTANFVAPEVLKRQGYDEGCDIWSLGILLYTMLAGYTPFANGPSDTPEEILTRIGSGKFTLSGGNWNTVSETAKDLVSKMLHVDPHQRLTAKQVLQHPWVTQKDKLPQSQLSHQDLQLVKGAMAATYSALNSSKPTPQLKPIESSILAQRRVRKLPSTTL
Chain of PIM2 (human) (Q9P1W9 whole entry, looked up): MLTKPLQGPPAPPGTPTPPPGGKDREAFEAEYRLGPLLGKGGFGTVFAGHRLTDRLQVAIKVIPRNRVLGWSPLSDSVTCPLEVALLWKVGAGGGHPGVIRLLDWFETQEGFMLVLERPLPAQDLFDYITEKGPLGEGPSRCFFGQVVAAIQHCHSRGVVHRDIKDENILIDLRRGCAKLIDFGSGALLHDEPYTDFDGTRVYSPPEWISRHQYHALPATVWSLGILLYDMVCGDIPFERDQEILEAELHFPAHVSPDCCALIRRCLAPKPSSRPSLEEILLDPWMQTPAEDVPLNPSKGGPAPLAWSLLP
Chain of PLK4 (human) (O00444 whole entry, looked up): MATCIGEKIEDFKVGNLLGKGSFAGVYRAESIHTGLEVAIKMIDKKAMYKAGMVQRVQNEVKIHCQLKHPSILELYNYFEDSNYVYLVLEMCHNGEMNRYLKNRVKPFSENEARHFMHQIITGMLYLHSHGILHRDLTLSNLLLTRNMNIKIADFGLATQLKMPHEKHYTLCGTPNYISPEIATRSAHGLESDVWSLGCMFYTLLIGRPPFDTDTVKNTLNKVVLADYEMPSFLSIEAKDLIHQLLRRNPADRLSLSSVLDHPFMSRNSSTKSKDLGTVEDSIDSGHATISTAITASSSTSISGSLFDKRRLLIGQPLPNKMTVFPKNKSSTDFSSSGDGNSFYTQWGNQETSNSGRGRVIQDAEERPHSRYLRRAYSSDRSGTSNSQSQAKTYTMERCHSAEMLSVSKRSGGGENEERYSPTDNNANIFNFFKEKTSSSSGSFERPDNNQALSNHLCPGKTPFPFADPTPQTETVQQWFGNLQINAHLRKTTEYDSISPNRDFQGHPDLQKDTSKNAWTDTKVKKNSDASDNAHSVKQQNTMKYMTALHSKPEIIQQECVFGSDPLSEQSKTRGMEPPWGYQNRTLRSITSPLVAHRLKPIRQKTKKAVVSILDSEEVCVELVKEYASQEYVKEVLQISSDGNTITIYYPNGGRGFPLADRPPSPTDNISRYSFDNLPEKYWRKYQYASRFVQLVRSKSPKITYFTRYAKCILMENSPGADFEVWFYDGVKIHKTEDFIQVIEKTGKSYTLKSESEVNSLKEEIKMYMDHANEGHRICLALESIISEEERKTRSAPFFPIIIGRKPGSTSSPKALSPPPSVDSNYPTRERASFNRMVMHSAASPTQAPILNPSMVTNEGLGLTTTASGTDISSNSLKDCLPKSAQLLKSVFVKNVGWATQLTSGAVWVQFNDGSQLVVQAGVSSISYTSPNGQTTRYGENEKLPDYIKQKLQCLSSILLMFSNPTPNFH
Chain of STK33 (human) (Q9BYT3 whole entry, looked up): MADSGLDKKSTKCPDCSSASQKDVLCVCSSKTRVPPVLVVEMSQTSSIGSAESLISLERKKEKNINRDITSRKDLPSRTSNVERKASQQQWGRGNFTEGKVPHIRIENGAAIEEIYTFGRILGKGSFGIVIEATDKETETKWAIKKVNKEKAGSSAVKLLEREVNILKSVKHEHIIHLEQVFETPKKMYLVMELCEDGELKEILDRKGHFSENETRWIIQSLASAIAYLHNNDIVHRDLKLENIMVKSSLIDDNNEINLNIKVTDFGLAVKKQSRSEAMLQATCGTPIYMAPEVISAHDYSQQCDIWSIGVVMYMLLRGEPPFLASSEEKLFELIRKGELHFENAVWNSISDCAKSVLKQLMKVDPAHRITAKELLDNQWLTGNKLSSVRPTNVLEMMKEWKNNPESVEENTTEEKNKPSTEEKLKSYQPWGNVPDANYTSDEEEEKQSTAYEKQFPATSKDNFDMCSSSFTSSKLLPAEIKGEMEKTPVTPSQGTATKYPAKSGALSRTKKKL
Chain of MYLK4 (human) (Q86YV6 whole entry, looked up): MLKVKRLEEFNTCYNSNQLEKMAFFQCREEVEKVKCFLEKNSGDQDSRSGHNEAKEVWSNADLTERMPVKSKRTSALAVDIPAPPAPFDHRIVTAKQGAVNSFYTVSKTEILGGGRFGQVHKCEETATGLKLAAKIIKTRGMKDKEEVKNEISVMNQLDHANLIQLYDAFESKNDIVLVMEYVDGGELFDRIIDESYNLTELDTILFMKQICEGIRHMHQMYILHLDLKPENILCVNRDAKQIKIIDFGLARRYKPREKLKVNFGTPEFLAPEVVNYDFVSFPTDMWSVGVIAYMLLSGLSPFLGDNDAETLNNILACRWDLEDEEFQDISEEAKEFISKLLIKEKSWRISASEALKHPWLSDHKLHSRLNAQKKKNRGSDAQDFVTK
Chain of MAPK8 (human) (P45983 whole entry, looked up): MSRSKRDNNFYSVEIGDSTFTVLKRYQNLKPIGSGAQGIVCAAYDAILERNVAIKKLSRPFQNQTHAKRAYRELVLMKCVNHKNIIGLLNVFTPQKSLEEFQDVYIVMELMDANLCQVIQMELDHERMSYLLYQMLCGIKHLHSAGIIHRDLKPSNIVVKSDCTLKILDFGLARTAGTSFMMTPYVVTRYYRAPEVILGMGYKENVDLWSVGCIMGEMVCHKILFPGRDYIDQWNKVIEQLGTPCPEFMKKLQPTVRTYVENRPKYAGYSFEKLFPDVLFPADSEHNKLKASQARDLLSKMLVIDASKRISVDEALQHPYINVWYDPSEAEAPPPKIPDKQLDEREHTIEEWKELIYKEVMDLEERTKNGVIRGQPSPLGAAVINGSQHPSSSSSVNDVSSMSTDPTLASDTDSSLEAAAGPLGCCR

kinase still bound, per cent of control (ALK (human)): 16% | kinase still bound, per cent of control (CAMK1D (human)): 29% | kinase still bound, per cent of control (CAMK2A (human)): 21% | kinase still bound, per cent of control (CLK1 (human)): 27% | kinase still bound, per cent of control (CLK2 (human)): 21% | kinase still bound, per cent of control (DAPK1 (human)): 4% | kinase still bound, per cent of control (DAPK2 (human)): 12% | kinase still bound, per cent of control (DAPK3 (human)): 11% | kinase still bound, per cent of control (DCLK1 (human)): 6.1% | kinase still bound, per cent of control (DCLK2 (human)): 8.6% | kinase still bound, per cent of control (FER (human)): 33% | kinase still bound, per cent of control (GAK (human)): 4.2% | kinase still bound, per cent of control (IGF1R (human)): 20% | kinase still bound, per cent of control (INSR (human)): 32% | kinase still bound, per cent of control (INSRR (human)): 19% | kinase still bound, per cent of control (MYLK (human)): 2.2% | kinase still bound, per cent of control (PLK3 (human)): 0% | kinase still bound, per cent of control (PLK4 (human)): 11% | kinase still bound, per cent of control (PRKD1 (human)): 28% | kinase still bound, per cent of control (PRKD3 (human)): 32% | kinase still bound, per cent of control (PTK2 (human)): 2.6% | kinase still bound, per cent of control (PTK2B (human)): 26% | kinase still bound, per cent of control (RPS6KA1 KD2 (human)): 25% | kinase still bound, per cent of control (RPS6KA2 KD2 (human)): 14% | kinase still bound, per cent of control (RPS6KA6 KD2 (human)): 14% | kinase still bound, per cent of control (SLK (human)): 12% | kinase still bound, per cent of control (STK33 (human)): 5.2% | kinase still bound, per cent of control (TNK1 (human)): 28% | Kd (TTK (human) [1]): 576 nM | kinase still bound, per cent of control (TTK (human) [1]): 5.2% | IC50 (TTK (human) [2]): 2280 nM
Structure (SMILES): COc1cc(C(=O)NC2CCN(C)CC2)ccc1Nc1ncc2c(n1)N(C1CCCC1)CCC(=O)N2C

kinase still bound, per cent of control (CDK16 (human)): 0.45% | kinase still bound, per cent of control (CDK7 (human)): 22% | kinase still bound, per cent of control (CLK2 (human)): 33% | kinase still bound, per cent of control (CSK (human)): 31% | kinase still bound, per cent of control (HIPK1 (human)): 4.3% | kinase still bound, per cent of control (MAP2K3 (human)): 16% | kinase still bound, per cent of control (MAPK10 (human)): 22% | kinase still bound, per cent of control (MAPK12 (human)): 33% | kinase still bound, per cent of control (MAPK14 (human)): 21% | kinase still bound, per cent of control (MAPK8 (human)): 33% | kinase still bound, per cent of control (MAPK9 (human)): 8.1% | kinase still bound, per cent of control (MYLK4 (human)): 24% | kinase still bound, per cent of control (PIM1 (human) [3]): 3.5% | kinase still bound, per cent of control (PIM2 (human) [4]): 3.4% | kinase still bound, per cent of control (PIM3 (human)): 2.9% | kinase still bound, per cent of control (PLK4 (human)): 0.7% | kinase still bound, per cent of control (RPS6KA1 KD2 (human)): 31% | kinase still bound, per cent of control (TAOK1 (human)): 9.2% | kinase still bound, per cent of control (TLK2 (human)): 33% | kinase still bound, per cent of control (TTK (human) [1]): 9% | IC50 (PIM1 (human) [5]): 1890 nM | IC50 (PIM2 (human) [6]): 6.45 µM
Structure (SMILES): CN(C)C1=NC(=O)/C(=C/c2ccc(-c3ccc(S(N)(=O)=O)cc3)o2)S1
kinase still bound, per cent of control (MAPK15 (human)): 19%
